Assay: Solubility of lactide in different solvents
Assay type: physicochemical

Which “solubility of lactide in ethanol” value (ethanol as first solvent, temperature maintained at 20 °C) does the source give for `CC1OC(=O)C(C)OC1=O` (centres unmarked) [lactide] here?
The value was no more than 10 wt %.

And the “solubility of lactide in γ-butyrolactone (in words)” value (solvent γ-butyrolactone, no solid crystal formed in condenser at 5 °C)?
The value was “high solubility”.

Reference: patent publication US10253012B2, “Method and apparatus for preparation of lactide using lactide purification process” (priority 2015, dated 2019)
